In PubChem BioAssay (NCI):
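Five compound concentrations were applied to cells in 96-well plates for 48 hours; endpoints were derived by simple linear interpolation of the resulting dose-response curve. The concentration for 50% growth inhibition is given as GI50. TGI: concentration producing complete growth inhibition.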

How the values were obtained:
Assay in all cases: NCI anticancer screen, dose series, 48 h
[1] = test system: RXF 393 renal
[2] = test system: MOLT-4 leukemia
[3] = test system: LOX IMVI melanoma
[4] = test system: HCC-2998 colon
[5] = test system: IGROV1 ovarian
[6] = test system: ACHN renal
[7] = test system: CCRF-CEM leukemia
[8] = test system: NCI/ADR-RES ovarian
[9] = test system: K-562 leukemia
[10] = test system: SF-539 CNS
[11] = test system: CAKI-1 renal
[12] = test system: SK-MEL-2 melanoma
[13] = test system: NCI-H226 lung
[14] = test system: U251 CNS
[15] = test system: UACC-62 melanoma
[16] = test system: SK-MEL-5 melanoma
[17] = test system: T-47D breast
[18] = test system: DU-145 prostate
[19] = test system: A498 renal
[20] = test system: MALME-3M melanoma
[21] = test system: MDA-MB-435
[22] = test system: MDA-N
[23] = test system: HL-60(TB) leukemia
[24] = test system: OVCAR-4 ovarian
[25] = test system: HOP-92 NSCLC
[26] = test system: 786-0 renal
[27] = test system: HCT-116 colon
[28] = test system: HT29 colon
[29] = test system: COLO 205 colon
[30] = test system: M14 melanoma
[31] = test system: SK-MEL-28 melanoma
[32] = test system: UO-31 renal
[33] = test system: HCT-15 colon
[34] = test system: OVCAR-3 ovarian
[35] = test system: SK-OV-3 ovarian
[36] = test system: SF-295 CNS
[37] = test system: OVCAR-8 ovarian
[38] = test system: KM12 colon
[39] = test system: MDA-MB-231 breast
[40] = test system: EKVX NSCLC
[41] = test system: SW-620 colon
[42] = test system: SNB-75 CNS
[43] = test system: SNB-19 CNS
[44] = test system: NCI-H23 lung
[45] = test system: MCF7 breast
[46] = test system: A549 NSCLC
[47] = test system: NCI-H522 lung
[48] = test system: HOP-62 NSCLC
[49] = test system: PC-3 prostate
[50] = test system: TK-10 renal
[51] = test system: RPMI-8226 leukemia
[52] = test system: OVCAR-5 ovarian
[53] = test system: SN12C renal
[54] = test system: UACC-257 melanoma
[55] = test system: SR leukemia
[56] = test system: NCI-H460 lung
[57] = test system: SF-268 CNS
[58] = test system: HS 578T breast
[59] = test system: BT-549 breast

C=C1C(=O)O[C@@H]2C(=O)[C@@H](C)CCC/C(C)=C/CC[C@@]3(C)O[C@@H]3C[C@@H]12
TGI [1]: 17.1 µM
TGI [2]: > 100 µM
TGI [3]: 36.9 µM
TGI [4]: > 100 µM
TGI [5]: 45.7 µM
TGI [6]: > 100 µM
TGI [7]: 30.2 µM
TGI [8]: > 100 µM
TGI [9]: 34.8 µM
TGI [10]: 60.6 µM
TGI [11]: 37.5 µM
TGI [12]: > 100 µM
TGI [13]: > 100 µM
TGI [14]: > 100 µM
TGI [15]: > 100 µM
TGI [16]: 56.7 µM
TGI [17]: > 100 µM
TGI [18]: > 100 µM
TGI [19]: > 100 µM
TGI [20]: > 100 µM
TGI [21]: > 100 µM
TGI [22]: > 100 µM
TGI [23]: 33.4 µM
TGI [24]: > 100 µM
TGI [25]: 31.2 µM
TGI [26]: 43.9 µM
TGI [27]: 96.1 µM
TGI [28]: 31.1 µM
TGI [29]: 47.9 µM
TGI [30]: > 100 µM
TGI [31]: > 100 µM
TGI [32]: > 100 µM
TGI [33]: 44 µM
TGI [34]: > 100 µM
TGI [35]: > 100 µM
TGI [36]: > 100 µM
TGI [37]: > 100 µM
TGI [38]: > 100 µM
TGI [39]: > 100 µM
TGI [40]: > 100 µM
TGI [41]: 43.4 µM
TGI [42]: 56.8 µM
TGI [43]: > 100 µM
TGI [44]: > 100 µM
TGI [45]: > 100 µM
TGI [46]: > 100 µM
TGI [47]: 25.2 µM
TGI [48]: > 100 µM
TGI [49]: > 100 µM
TGI [50]: 81.6 µM
TGI [51]: 54.1 µM
TGI [52]: > 100 µM
TGI [53]: > 100 µM
TGI [54]: > 100 µM

CN1CCN(C2=NCCO2)CC1
TGI [1]: > 100 µM
TGI [2]: > 100 µM
TGI [3]: > 100 µM
TGI [4]: > 100 µM
TGI [5]: > 100 µM
TGI [6]: > 100 µM
TGI [7]: > 100 µM
TGI [8]: > 100 µM
TGI [9]: > 100 µM
TGI [10]: > 100 µM
TGI [11]: > 100 µM
TGI [12]: > 100 µM
TGI [13]: > 100 µM
TGI [14]: > 100 µM
TGI [15]: > 100 µM
TGI [16]: > 100 µM
TGI [17]: > 100 µM
TGI [18]: > 100 µM
TGI [19]: > 100 µM
TGI [55]: > 100 µM
TGI [20]: > 100 µM
TGI [21]: > 100 µM
TGI [22]: > 100 µM
TGI [23]: > 100 µM
TGI [24]: > 100 µM
TGI [26]: > 100 µM
TGI [27]: > 100 µM
TGI [28]: > 100 µM
TGI [56]: > 100 µM
TGI [29]: > 100 µM
TGI [30]: > 100 µM
TGI [57]: > 100 µM
TGI [31]: > 100 µM
TGI [32]: > 100 µM
TGI [33]: > 100 µM
TGI [34]: > 100 µM
TGI [35]: > 100 µM
TGI [36]: > 100 µM
TGI [37]: > 100 µM
TGI [38]: > 100 µM
TGI [39]: > 100 µM
TGI [40]: > 100 µM
TGI [41]: > 100 µM
TGI [42]: > 100 µM
TGI [43]: > 100 µM
TGI [44]: > 100 µM
TGI [45]: > 100 µM
TGI [46]: > 100 µM
TGI [47]: > 100 µM
TGI [48]: > 100 µM
TGI [49]: > 100 µM
TGI [50]: > 100 µM
TGI [51]: > 100 µM
TGI [52]: > 100 µM
TGI [53]: > 100 µM
TGI [54]: > 100 µM

C=C(C)C(OC)C(O)CC1(C)CC(O)CC(C)(C2CCC3OC(C4(C)CCC(Br)C(C)(C)O4)CCC3(C)O2)O1 (stereo unspecified)
GI50 [1]: 18.3 µM
TGI [1]: 40.4 µM
GI50 [2]: 13.5 µM
TGI [2]: 29.4 µM
GI50 [3]: 26.1 µM
TGI [3]: > 58.9 µM
GI50 [4]: 14.8 µM
TGI [4]: 30.1 µM
GI50 [5]: 24 µM
TGI [5]: > 57.1 µM
GI50 [58]: 23.9 µM
TGI [58]: 52.9 µM
GI50 [6]: 26.4 µM
TGI [6]: > 57.4 µM
GI50 [7]: 21.3 µM
TGI [7]: 55.8 µM
GI50 [8]: 18.3 µM
TGI [8]: 39.6 µM
GI50 [9]: 20.7 µM
TGI [9]: > 68.5 µM
GI50 [10]: 18.9 µM
TGI [10]: 36.5 µM
GI50 [11]: 18.1 µM
TGI [11]: 38.3 µM
GI50 [12]: 18.1 µM
TGI [12]: 36.5 µM
GI50 [13]: 18.8 µM
TGI [13]: 41.2 µM
GI50 [14]: 25.5 µM
TGI [14]: > 61.9 µM
GI50 [15]: 19 µM
TGI [15]: 39.5 µM
GI50 [16]: 13.2 µM
TGI [16]: 28.4 µM
GI50 [17]: 2.27 µM
TGI [17]: 22.2 µM
GI50 [18]: 17.3 µM
TGI [18]: 32 µM
GI50 [19]: 16.5 µM
TGI [19]: 31.1 µM
GI50 [55]: 34.9 µM
TGI [55]: > 100 µM
GI50 [20]: 14.9 µM
TGI [20]: 32.5 µM
GI50 [21]: 19.8 µM
TGI [21]: 46.3 µM
GI50 [23]: 17.1 µM
TGI [23]: > 56.7 µM
GI50 [24]: 23.1 µM
TGI [24]: 44.2 µM
GI50 [25]: 15.8 µM
TGI [25]: 34 µM
GI50 [26]: 17.8 µM
TGI [26]: 33.6 µM
GI50 [27]: 20.6 µM
TGI [27]: 51.7 µM
GI50 [59]: 19.9 µM
TGI [59]: 38.4 µM
GI50 [28]: 30.3 µM
TGI [28]: > 78.9 µM
GI50 [56]: 17.7 µM
TGI [56]: 39.3 µM
GI50 [29]: 21.7 µM
TGI [29]: 45.5 µM
GI50 [30]: 17.4 µM
TGI [30]: 32.7 µM
GI50 [57]: 18.9 µM
TGI [57]: 40.3 µM
GI50 [31]: 23.6 µM
TGI [31]: 50 µM
GI50 [32]: 15.7 µM
TGI [32]: 34.4 µM
GI50 [33]: 26.2 µM
TGI [33]: > 68 µM
GI50 [34]: 22.8 µM
TGI [34]: 58.5 µM
GI50 [35]: 22.8 µM
TGI [35]: 54.3 µM
GI50 [36]: 22.7 µM
TGI [36]: 62.2 µM
GI50 [37]: 21.1 µM
TGI [37]: 50.2 µM
GI50 [38]: 17.5 µM
TGI [38]: 36.7 µM
GI50 [39]: 20.3 µM
TGI [39]: 43.8 µM
GI50 [40]: 14.1 µM
TGI [40]: 34.1 µM
GI50 [41]: 21 µM
TGI [41]: 45.4 µM
GI50 [42]: 27.4 µM
TGI [42]: > 61.5 µM
GI50 [43]: 3.28 µM
TGI [43]: 39 µM
GI50 [44]: 16 µM
TGI [44]: 34.6 µM
GI50 [45]: 19.9 µM
TGI [45]: 42.3 µM
GI50 [46]: 21 µM
TGI [46]: > 58 µM
GI50 [47]: 18.2 µM
TGI [47]: 55.8 µM
GI50 [48]: 17.4 µM
TGI [48]: 32.6 µM
GI50 [49]: 15.4 µM
TGI [49]: 32.4 µM
GI50 [50]: 16 µM
TGI [50]: 33.5 µM
GI50 [51]: 12.7 µM
TGI [51]: 38.1 µM
GI50 [52]: 20.5 µM
TGI [52]: 38.7 µM
GI50 [53]: 18.3 µM
TGI [53]: 39.4 µM
GI50 [54]: 20.2 µM
TGI [54]: 43 µM
